The record followed here is patent US20250171420A1 (Monte Rosa Therapeutics, Inc., priority 2022, published 2025).

What all share (assay type): cell-based
In one assay the test system is CW2 cell line. As to the kind of experiment: Growth inhibition, CyQUANT Direct Cell Proliferation Assay, CW2. The note with it: Homo sapiens, CW-2; CW2, 120 to 168 hours; read-out: CW2 GI50. The procedure, abridged: (§1)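 Cells seeded 300 to 1,800 per well, day-0 CyQUANT Direct read after overnight attachment; 9-point 3-fold dilutions from 30 μM top concentration, 120 to 168 h exposure, 0.3% DMSO control. Fluorescence Ex/Em 480/520 nm; growth inhibition normalised to day-0 and untreated day-N signals, GI50 at 50% of untreated control.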

For assay [1], the target named is T1, CK1α (Homo sapiens, UniProt P48729+Q96SW2).
T1 construct: HEK293 clonal lines with CRISPR KI HiBiT tag on CSNK1A1
T1 sequence (P48729 whole entry): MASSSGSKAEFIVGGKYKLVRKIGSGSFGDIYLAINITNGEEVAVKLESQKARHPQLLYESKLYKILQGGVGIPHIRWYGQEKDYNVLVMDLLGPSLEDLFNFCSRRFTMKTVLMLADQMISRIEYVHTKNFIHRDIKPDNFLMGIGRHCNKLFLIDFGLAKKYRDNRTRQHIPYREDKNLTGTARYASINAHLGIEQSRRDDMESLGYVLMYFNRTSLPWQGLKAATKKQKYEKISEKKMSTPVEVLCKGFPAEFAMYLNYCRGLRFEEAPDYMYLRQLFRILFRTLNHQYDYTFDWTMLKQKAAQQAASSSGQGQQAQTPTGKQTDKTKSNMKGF
T1 sequence (Q96SW2 whole entry): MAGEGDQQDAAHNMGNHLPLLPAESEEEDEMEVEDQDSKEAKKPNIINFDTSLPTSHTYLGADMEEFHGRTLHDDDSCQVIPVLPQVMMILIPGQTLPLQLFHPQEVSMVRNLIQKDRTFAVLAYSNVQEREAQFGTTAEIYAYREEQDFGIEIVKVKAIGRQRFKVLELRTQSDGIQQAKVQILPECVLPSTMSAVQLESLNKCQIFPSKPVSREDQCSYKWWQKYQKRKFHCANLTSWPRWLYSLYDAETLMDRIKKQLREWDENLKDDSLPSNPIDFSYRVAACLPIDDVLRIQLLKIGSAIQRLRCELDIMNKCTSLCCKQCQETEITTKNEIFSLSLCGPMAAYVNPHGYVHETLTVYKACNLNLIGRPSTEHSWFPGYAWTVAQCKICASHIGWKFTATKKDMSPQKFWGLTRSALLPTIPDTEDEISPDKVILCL
T1 sequence (Q16531 2-1140 partner limits assumed): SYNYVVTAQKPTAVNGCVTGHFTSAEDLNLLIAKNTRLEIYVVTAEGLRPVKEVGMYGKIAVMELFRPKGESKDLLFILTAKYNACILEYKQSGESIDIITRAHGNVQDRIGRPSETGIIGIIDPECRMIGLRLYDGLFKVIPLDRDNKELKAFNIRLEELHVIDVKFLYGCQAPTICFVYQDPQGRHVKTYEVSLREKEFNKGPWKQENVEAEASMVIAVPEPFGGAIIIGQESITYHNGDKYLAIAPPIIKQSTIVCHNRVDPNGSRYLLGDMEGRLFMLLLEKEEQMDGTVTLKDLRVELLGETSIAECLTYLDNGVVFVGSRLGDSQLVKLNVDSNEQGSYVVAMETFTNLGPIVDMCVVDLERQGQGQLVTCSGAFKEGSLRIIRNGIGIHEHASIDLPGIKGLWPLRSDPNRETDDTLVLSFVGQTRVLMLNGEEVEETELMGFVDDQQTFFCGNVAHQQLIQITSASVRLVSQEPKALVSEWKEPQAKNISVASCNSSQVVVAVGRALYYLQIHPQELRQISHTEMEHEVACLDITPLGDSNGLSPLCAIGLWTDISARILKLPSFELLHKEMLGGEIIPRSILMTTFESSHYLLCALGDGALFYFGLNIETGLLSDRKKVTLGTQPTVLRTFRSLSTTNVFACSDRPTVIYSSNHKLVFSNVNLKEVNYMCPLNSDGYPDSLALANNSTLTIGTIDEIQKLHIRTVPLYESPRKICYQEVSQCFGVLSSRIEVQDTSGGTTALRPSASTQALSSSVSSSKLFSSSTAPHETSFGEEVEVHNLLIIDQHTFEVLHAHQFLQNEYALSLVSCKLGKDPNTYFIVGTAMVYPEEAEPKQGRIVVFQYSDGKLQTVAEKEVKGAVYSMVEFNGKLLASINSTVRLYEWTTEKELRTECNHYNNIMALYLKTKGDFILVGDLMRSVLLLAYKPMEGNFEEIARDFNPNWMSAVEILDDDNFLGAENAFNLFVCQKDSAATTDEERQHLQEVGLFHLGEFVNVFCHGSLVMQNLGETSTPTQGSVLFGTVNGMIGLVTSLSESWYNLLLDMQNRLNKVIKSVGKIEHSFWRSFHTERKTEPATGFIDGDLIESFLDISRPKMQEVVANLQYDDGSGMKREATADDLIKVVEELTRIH
The assay is described as follows: Western blot of CK1α levels in HEK293 and HEK293 CRBN knock out cells. The conditions noted are these: 0.1, 1, 10 μM, 24 hours, FIG. 1. As for the experimental part: HEK293 cell line was purchased from ATCC (CRL-1573). HEK293 CRBN knock out (k/o) cell line (B2) was generated internally using CRISPR/Cas9 method and clonally expanded. Cells were plated at 2×10^5 cells per well in 6-well tissue culture plates (VWR) in 2 ml of DMEM media (Gibco) containing 10% FBS (Gibco), and incubated for 16 hours at 37° C., 5% CO2. Compounds were added to final concentration of 0.1 μM, 1 μM, 10 μM (DMSO concentration was kept constant at 0.1%), following incubation at 37° C., 5% CO2 for additional 24 hours. Cell lysis was performed using RIPA buffer (Pierce) containing Halt™ Protease Inhibitor Cocktail (ThermoFisher Scientific). Lysates were boiled at 95° C. for 10 minutes and 12 μg of protein lysate per sample was resolved by SDS-PAGE using 12% gels (BioRad) and transferred to nitrocellulose membrane (BioRad). Membranes were blocked using LI-COR blocking buffer (LI-COR) at room temperature for 1 hour, followed by overnight incubation with rabbit anti-CK1α (Abcam ab206652), rabbit anti-CRBN (Sigma HPA045910) and mouse anti-α-tubulin (Sigma T9026) antibodies at 4° C. Secondary antibodies (LI-COR) were added for 1 hour at room temperature, followed by imaging with LI-COR imaging system Odyssey® CLx.
Background: In western blotting, separated proteins are transferred to a membrane and probed.

A further assay has as its system LS180 cell line. As to the kind of experiment: Growth inhibition, CyQUANT Direct Cell Proliferation Assay, LS180. The conditions noted are these: Homo sapiens; LS180, 120 to 168 hours; read-out: LS180 GI50. The gist of the method: as §1
The target in assay [2] is T2, CK1α (Homo sapiens, UniProt P48729).
T2 construct: HEK293 clonal lines with CRISPR KI HiBiT tag on CSNK1A1
T2 sequence (P48729 whole entry): as the sequence (P48729 whole entry) above
T2 sequence (Q96SW2 whole entry, further chain): as the sequence (Q96SW2 whole entry) above
T2 sequence (Q16531 2-1140 partner limits assumed): as the sequence (Q16531 2-1140 partner limits assumed) above
The assay is described as follows: CK1α NanoBit Assay (HiBiT-tagged CSNK1A1, HEK293 clonal lines). The conditions noted are these: HEK293 HiBiT-CSNK1A1/LgBiT cells, 24 h incubation. The gist of the method:
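HEK293 clones carrying a CRISPR knock-in HiBiT tag on CSNK1A1 and stably expressing LgBiT are treated with compound for 24 hours at 37° C, 5% CO2, then read by luminescence. Response is normalized as 100*(S−N)/(P−N) against plate negative and positive controls, and DC50 values are derived.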
In general terms: The HiBiT peptide binds its large partner to form an active luciferase.

For another assay, the system named is LS174T cell line. As to the kind of experiment: Growth inhibition, CyQUANT Direct Cell Proliferation Assay, LS174T. The conditions noted are these: Homo sapiens, 120 to 168 hours, read-out: LS174T GI50. The gist of the method:
as §1

Another assay deals with SKCO1 cell line. The assay is described as follows: Growth inhibition, CyQUANT Direct Cell Proliferation Assay, SKCO1. The note with it: Homo sapiens, SK-CO-1; SKCO1, 120 to 168 hours; read-out: SKCO1 GI50. The procedure, abridged:
as §1

What is called GI50 is the concentration that inhibits growth by half. In the case of `C[C@@H]1Cc2ccccc2N1C(=O)Nc1ccc2c(c1)CN(C1CCC(=O)NC1=O)C2=O` (stereo partly drawn) [Compound 102, (2R)—N-(2-(2,6-dioxopiperidin-3-yl)-1-oxoisoindolin-5-yl)-2-methylindoline-1-carboxamide], the GI50 in the assay with CW2 cell line is < 100 nM; in the assay on LS180 cell line, 100 to 1000 nM; in the assay on LS174T cell line it was 100 to 1000 nM; with SKCO1 cell line, < 100 nM. Moreover, the “effect on CK1a levels in HEK293 cell line” value at CK1α [1] (HEK293, cereblon present) was “decreases CK1a levels”. In addition, the “effect on CK1a levels in cereblon (CRBN) knock-out HEK293 cell line” value on CK1α [1] (HEK293 CRBN knock-out) is on record as “no effect on CK1a levels”. For the same compound, the DC50 on CK1α [2] was < 0.1 µM.
